# According to patent publication US10111875B2, “Pyrrolopyrimidine compounds and uses thereof” (HUTCHISON MEDIPHARMA LIMITED, priority 2010, dated 2018):
# Like-named read-outs stand apart in the source and are kept apart here.
# Biological target: Recombinant human JAK1 catalytic domain (Homo sapiens (Human), UniProt P23458)
# Test: JAK1 kinase assay (Z'-LYTE Tyr 6 Peptide)
# Assay type: biochemical
# Conditions: read-out: inhibition percentage (IR %)
# Procedure: JAK1/2/3 kinase assay are performed in vitro using Kit-Tyr 6 Peptide (Invitrogen, Cat. No. PV4122). TYK2 kinase assay are performed in vitro using Z′-LYTE™ Kinase Assay Kit-Tyr 3 Peptide (Invitrogen, Cat. No. PV3192). […] All compounds are initially tested at 8 different concentrations (1 μM down to 0.0003 μM) using a 1:3 serial dilution scheme.
# [1] = JAK1 kinase assay, 0.3 uM concentration
# Sequence of Recombinant human JAK1 catalytic domain (P23458 875-1153): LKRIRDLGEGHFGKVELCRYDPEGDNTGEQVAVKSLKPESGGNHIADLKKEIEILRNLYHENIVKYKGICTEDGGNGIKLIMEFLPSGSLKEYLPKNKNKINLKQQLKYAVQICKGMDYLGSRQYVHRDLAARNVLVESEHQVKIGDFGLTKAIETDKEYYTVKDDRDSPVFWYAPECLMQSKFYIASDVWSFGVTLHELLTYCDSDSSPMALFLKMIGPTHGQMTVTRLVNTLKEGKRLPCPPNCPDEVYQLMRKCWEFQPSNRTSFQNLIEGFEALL
inhibition at 0.3 µM [1],SMILES,inhibition at 0.3 µM
50 to 100%,Cc1nc(N(C)[C@@H]2CCN(c3ncnc4[nH]ccc34)C2)ccc1C#N [Compound 155],–
50 to 100%,CN(c1ccccn1)[C@@H]1CCN(c2ncnc3[nH]ccc23)C1 [Compound 156],–
50 to 100%,Cc1cc(N(C)[C@@H]2CCN(c3ncnc4[nH]ccc34)C2)ncc1C#N [Compound 157],–
50 to 100%,CN(c1ncc(C#N)cc1F)[C@@H]1CCN(c2ncnc3[nH]ccc23)C1 [Compound 158],–
50 to 100%,CN(c1ncccc1C#N)[C@@H]1CCN(c2ncnc3[nH]ccc23)C1 [Compound 159],–
20 to 50%,"CN(c1ccc(-c2nn[nH]n2)cn1)[C@@H]1CCN(c2ncnc3[nH]ccc23)C1 [Compound 160, (R)—N-(1-(7H-pyrrolo[2,3-d]pyrimidin-4-yl)pyrrolidin-3-yl)-N-methyl-5-(2H-tetrazol-5-yl)pyridin-2-amine]",–
50 to 100%,CN(c1ccc(-c2nn[nH]n2)cc1F)[C@@H]1CCN(c2ncnc3[nH]ccc23)C1 [Compound 161],–
–,"C#Cc1ccc(N(C)[C@@H]2CCN(c3ncnc4[nH]ccc34)C2)nc1 [Compound 162, (R)—N-(1-(7H-pyrrolo[2,3-d]pyrimidin-4-yl)pyrrolidin-3-yl)-5-ethynyl-N-methylpyridin-2-amine]",50 to 100%
50 to 100%,"CN(c1ccc2nc[nH]c2n1)[C@@H]1CCN(c2ncnc3[nH]ccc23)C1 [Compound 163, (R)—N-(1-(7H-pyrrolo[2,3-d]pyrimidin-4-yl)pyrrolidin-3-yl)-N-methyl-3H-imidazo[4,5-b]pyridin-5-amine]",–
50 to 100%,"CN(c1ccc2[nH]c(=O)[nH]c2n1)[C@@H]1CCN(c2ncnc3[nH]ccc23)C1 [Compound 164, (R)-5-((1-(7H-pyrrolo[2,3-d]pyrimidin-4-yl)pyrrolidin-3-yl)(methyl)amino)-1H-imidazo[4,5-b]pyridin-2(3H)-one]",–
20 to 50%,"N#Cc1cnc2c(c1)[nH]c(=O)n2[C@@H]1CCN(c2ncnc3[nH]ccc23)C1 [Compound 165, (R)-3-(1-(7H-pyrrolo[2,3-d]pyrimidin-4-yl)pyrrolidin-3-yl)-2-oxo-2,3-dihydro-1H-imidazo[4,5-b]pyridine-6-carbonitrile]",–
20 to 50%,"CN(c1ccc(C#N)cc1N)[C@@H]1CCN(c2ncnc3[nH]ccc23)C1 [Compound 166, (R)-4-((1-(7H-pyrrolo[2,3-d]pyrimidin-4-yl)pyrrolidin-3-yl)(methyl)amino)-3-aminobenzonitrile]",–
50 to 100%,"CN(c1ccc2nn[nH]c2n1)[C@@H]1CCN(c2ncnc3[nH]ccc23)C1 [Compound 167, (R)—N-(1-(7H-pyrrolo[2,3-d]pyrimidin-4-yl)pyrrolidin-3-yl)-N-methyl-3H-[1,2,3]triazolo[4,5-b]pyridin-5-amine]",–
50 to 100%,COC(=O)c1ccc(N(C)[C@@H]2CCN(c3ncnc4[nH]ccc34)C2)nc1 [Compound 168],–
20 to 50%,"CN(c1ccc(C(N)=O)cn1)[C@@H]1CCN(c2ncnc3[nH]ccc23)C1 [Compound 169, (R)-6-((1-(7H-pyrrolo[2,3-d]pyrimidin-4-yl)pyrrolidin-3-yl)(methyl)amino)nicotinamide]",–
–,"CN(c1ccc(C(=O)O)cn1)[C@@H]1CCN(c2ncnc3[nH]ccc23)C1 [Compound 170, (R)-6-((1-(7H-pyrrolo[2,3-d]pyrimidin-4-yl)pyrrolidin-3-yl)(methyl)amino)nicotinic acid]",50 to 100%
50 to 100%,"CN(c1ccc(C(=O)NC2CC2)cn1)[C@@H]1CCN(c2ncnc3[nH]ccc23)C1 [Compound 171, (R)-6-((1-(7H-pyrrolo[2,3-d]pyrimidin-4-yl)pyrrolidin-3-yl)(methyl)amino)-N-cyclopropylnicotinamide]",–
20 to 50%,CN(c1ccc(C(=O)NCc2ccccc2)cn1)[C@@H]1CCN(c2ncnc3[nH]ccc23)C1 [Compound 172],–
20 to 50%,CN(C)C(=O)c1ccc(N(C)[C@@H]2CCN(c3ncnc4[nH]ccc34)C2)nc1 [Compound 173],–

inhibition at 0.3 µM [1],SMILES,inhibition at 0.3 µM
50 to 100%,CN(c1ccc(C(=O)N[C@H](CO)c2ccccc2)cn1)[C@@H]1CCN(c2ncnc3[nH]ccc23)C1 [Compound 174],–
20 to 50%,CNC(=O)c1ccc(N(C)[C@@H]2CCN(c3ncnc4[nH]ccc34)C2)nc1 [Compound 175],–
50 to 100%,CN(c1ccc(C(=O)Nc2cccc(F)c2)cn1)[C@@H]1CCN(c2ncnc3[nH]ccc23)C1 [Compound 177],–
50 to 100%,CN(C(=O)c1ccc(N(C)[C@@H]2CCN(c3ncnc4[nH]ccc34)C2)nc1)c1ccc(F)cc1 [Compound 178],–
50 to 100%,CN(c1ccc(C(=O)N[C@@H](CO)c2ccccc2)cc1F)[C@@H]1CCN(c2ncnc3[nH]ccc23)C1 [Compound 179],–
50 to 100%,CC(C)[C@H](CO)NC(=O)c1ccc(N(C)[C@@H]2CCN(c3ncnc4[nH]ccc34)C2)c(F)c1 [Compound 180],–
50 to 100%,C[C@H](NC(=O)c1ccc(N(C)[C@@H]2CCN(c3ncnc4[nH]ccc34)C2)c(F)c1)c1ccccc1 [Compound 182],–
50 to 100%,COc1ccc(NC(=O)c2ccc(N(C)[C@@H]3CCN(c4ncnc5[nH]ccc45)C3)nc2)cc1 [Compound 183],–
50 to 100%,CN(c1ccc(C(=O)NC2c3ccccc3CC2O)cc1F)[C@@H]1CCN(c2ncnc3[nH]ccc23)C1 (stereo partly drawn) [Compound 184],–
50 to 100%,CN(c1ccc(C(=O)Nc2cccc(Cl)c2)cc1F)[C@@H]1CCN(c2ncnc3[nH]ccc23)C1 [Compound 185],–
50 to 100%,Cc1ccc(NC(=O)c2ccc(N(C)[C@@H]3CCN(c4ncnc5[nH]ccc45)C3)nc2)cc1 [Compound 186],–
50 to 100%,CN(c1ccc(C(=O)NCc2ccccc2)cc1F)[C@@H]1CCN(c2ncnc3[nH]ccc23)C1 [Compound 187],–
20 to 50%,C[C@H](NC(=O)c1ccc(N(C)[C@@H]2CCN(c3ncnc4[nH]ccc34)C2)nc1)c1ccccc1 [Compound 188],–
20 to 50%,CN(c1ccc(C(=O)NC[C@H](O)c2ccccc2)cc1Cl)[C@@H]1CCN(c2ncnc3[nH]ccc23)C1 [Compound 189],–
50 to 100%,CN(c1ccc(C(=O)NCCO)cn1)[C@@H]1CCN(c2ncnc3[nH]ccc23)C1 [Compound 190],–
50 to 100%,CN(c1ccc(C(=O)Nc2ccc(F)cc2)cn1)[C@@H]1CCN(c2ncnc3[nH]ccc23)C1 [Compound 191],–
50 to 100%,CN(c1ccc(C(=O)Nc2ccccc2F)cn1)[C@@H]1CCN(c2ncnc3[nH]ccc23)C1 [Compound 192],–
20 to 50%,CN(c1ccc(C(=O)Nc2ccc(Cl)cc2)cn1)[C@@H]1CCN(c2ncnc3[nH]ccc23)C1 [Compound 193],–
20 to 50%,CN(c1ccc(C(=O)N[C@@H]2CCC[C@H]2O)cn1)[C@@H]1CCN(c2ncnc3[nH]ccc23)C1 [Compound 194],–

inhibition at 0.3 µM [1],SMILES,inhibition at 0.3 µM
50 to 100%,C[C@@H](NC(=O)c1ccc(N(C)[C@@H]2CCN(c3ncnc4[nH]ccc34)C2)nc1)c1ccccc1 [Compound 195],–
20 to 50%,COc1cccc(NC(=O)c2ccc(N(C)[C@@H]3CCN(c4ncnc5[nH]ccc45)C3)nc2)c1 [Compound 196],–
50 to 100%,CN(C(=O)c1ccc(N(C)[C@@H]2CCN(c3ncnc4[nH]ccc34)C2)nc1)c1ccccc1 [Compound 197],–
20 to 50%,CN(c1ccc(C(=O)Nc2cccnc2)cn1)[C@@H]1CCN(c2ncnc3[nH]ccc23)C1 [Compound 198],–
50 to 100%,CN(c1ccc(C(=O)NC(CO)c2ccc(Cl)cc2)cc1F)[C@@H]1CCN(c2ncnc3[nH]ccc23)C1 (stereo partly drawn) [Compound 201],–
50 to 100%,CN(c1ccc(C(=O)NC[C@H](O)c2ccccc2)cc1F)[C@@H]1CCN(c2ncnc3[nH]ccc23)C1 [Compound 202],–
20 to 50%,CN(c1ccc(C(=O)N[C@@H]2c3ccccc3C[C@@H]2O)cc1F)[C@@H]1CCN(c2ncnc3[nH]ccc23)C1 [Compound 203],–
50 to 100%,CN(c1ccc(C(=O)N[C@@H](CO)c2ccccc2)cc1Cl)[C@@H]1CCN(c2ncnc3[nH]ccc23)C1 [Compound 205],–
50 to 100%,CN(c1ccc(C(=O)NC(CO)c2ccccc2Cl)cc1F)[C@@H]1CCN(c2ncnc3[nH]ccc23)C1 (stereo partly drawn) [Compound 207],–
50 to 100%,CN(c1c(F)cc(C(=O)N[C@@H](CO)c2ccccc2)cc1F)[C@@H]1CCN(c2ncnc3[nH]ccc23)C1 [Compound 208],–
50 to 100%,COC[C@H](NC(=O)c1ccc(N(C)[C@@H]2CCN(c3ncnc4[nH]ccc34)C2)nc1)c1ccccc1 [Compound 209],–
–,"CCS(=O)(=O)Nc1ccc(N(C)[C@@H]2CCN(c3ncnc4[nH]ccc34)C2)nc1 [Compound 210, (R)—N-6-((1(7H-pyrrolo[2,3-d]pyrimidin-4-yl)pyrrolidin-3-yl)(methyl)(amino)pyridin-3-yl)ethanesulfonamfide]",50 to 100%
50 to 100%,CN(c1ccc(NS(=O)(=O)c2ccc(F)cc2)cn1)[C@@H]1CCN(c2ncnc3[nH]ccc23)C1 [Compound 212],–
20 to 50%,CN(c1ccc(NS(=O)(=O)c2cc(F)ccc2F)cn1)[C@@H]1CCN(c2ncnc3[nH]ccc23)C1 [Compound 213],–
50 to 100%,CN(c1ccc(NS(=O)(=O)c2cccs2)cn1)[C@@H]1CCN(c2ncnc3[nH]ccc23)C1 [Compound 214],–
50 to 100%,CC(C)S(=O)(=O)Nc1ccc(N(C)[C@@H]2CCN(c3ncnc4[nH]ccc34)C2)nc1 [Compound 218],–
50 to 100%,CN(c1ccc(NS(=O)(=O)Cc2ccccc2F)cn1)[C@@H]1CCN(c2ncnc3[nH]ccc23)C1 [Compound 219],–
50 to 100%,CN(c1ccc(NS(=O)(=O)Cc2cccc(F)c2)cn1)[C@@H]1CCN(c2ncnc3[nH]ccc23)C1 [Compound 220],–
20 to 50%,CN(c1ccc(NS(=O)(=O)Cc2ccc(F)cc2)cn1)[C@@H]1CCN(c2ncnc3[nH]ccc23)C1 [Compound 221],–
